Experimental data taken from ChEMBL document CHEMBL1201862, “PubChem BioAssay data set” (2004).
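Five concentrations, 48 hours, 96-well plates. GI50 marks 50% less growth.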 The source made the active and inactive calls. Cut-off read from the data, not from the text of the source: active = GI50 up to about 1.1 µM and inactive = higher.

Experiments:
Assay in all cases: NCI tumour cell line growth inhibition, 48 h
T47D = test system: T47D
MCF7 = test system: MCF7
HCT-116 = test system: HCT-116
SF-539 = test system: SF-539
RXF 393 = test system: RXF 393
K562 = test system: K562
CCRF-CEM = test system: CCRF-CEM
TK-10 = test system: TK-10
SK-MEL-5 = test system: SK-MEL-5
ACHN = test system: ACHN
MDA-MB-435 = test system: MDA-MB-435
SR = test system: SR
HOP-62 = test system: HOP-62
RPMI-8226 = test system: RPMI-8226
BT-549 = test system: BT-549
CAKI-1 = test system: CAKI-1
SK-MEL-28 = test system: SK-MEL-28
SNB-75 = test system: SNB-75
NCI-H522 = test system: NCI-H522
DU-145 = test system: DU-145
MOLT-4 = test system: MOLT-4
NCI-H460 = test system: NCI-H460
OVCAR-5 = test system: OVCAR-5
OVCAR-8 = test system: OVCAR-8
SF-268 = test system: SF-268
Hs-578T = test system: Hs-578T
MDA-MB-231 = test system: MDA-MB-231
LOX IMVI = test system: LOX IMVI
HCC 2998 = test system: HCC 2998
Malme-3M = test system: Malme-3M
EKVX = test system: EKVX
OVCAR-3 = test system: OVCAR-3
SW-620 = test system: SW-620
MDA-N = test system: MDA-N
SK-OV-3 = test system: SK-OV-3
M14 = test system: M14
KM12 = test system: KM12
SN12C = test system: SN12C
UACC-257 = test system: UACC-257
HCT-15 = test system: HCT-15
786-0 = test system: 786-0
PC-3 = test system: PC-3
UO-31 = test system: UO-31
SF-295 = test system: SF-295
HL-60 = test system: HL-60
UACC-62 = test system: UACC-62
A498 = test system: A498
OVCAR-4 = test system: OVCAR-4
HT-29 = test system: HT-29
U-251 = test system: U-251
HOP-92 = test system: HOP-92
IGROV-1 = test system: IGROV-1
NCI-H226 = test system: NCI-H226
COLO 205 = test system: COLO 205
NCI-H23 = test system: NCI-H23
NCI/ADR-RES = test system: NCI/ADR-RES
A549 = test system: A549
SNB-19 = test system: SNB-19
SK-MEL-2 = test system: SK-MEL-2

Cc1cc(S(=O)(=O)Nc2n[nH]c(-c3ccc(Cl)cc3)n2)c(SSc2cc(Cl)c(C)cc2S(=O)(=O)Nc2n[nH]c(-c3ccc(Cl)cc3)n2)cc1Cl
GI50 (T47D): 14.6 µM (inactive) | GI50 (MCF7): 24.6 µM (inactive) | GI50 (HCT-116): 28.5 µM (inactive) | GI50 (SF-539): 40.8 µM (inactive) | GI50 (RXF 393): 25.1 µM (inactive) | GI50 (K562): 27 µM (inactive) | GI50 (CCRF-CEM): 25.9 µM (inactive) | GI50 (TK-10): 58.3 µM (inactive) | GI50 (SK-MEL-5): 33.2 µM (inactive) | GI50 (ACHN): 32.1 µM (inactive) | GI50 (MDA-MB-435): 31.7 µM (inactive) | GI50 (SR): 25.5 µM (inactive) | GI50 (HOP-62): 54.5 µM (inactive) | GI50 (RPMI-8226): 37.2 µM (inactive) | GI50 (BT-549): 40.6 µM (inactive) | GI50 (CAKI-1): 34.2 µM (inactive) | GI50 (SK-MEL-28): 33 µM (inactive) | GI50 (SNB-75): 27.9 µM (inactive) | GI50 (NCI-H522): 32.2 µM (inactive) | GI50 (DU-145): 32.1 µM (inactive) | GI50 (MOLT-4): 25.8 µM (inactive) | GI50 (NCI-H460): 22.4 µM (inactive) | GI50 (OVCAR-5): 22 µM (inactive) | GI50 (OVCAR-8): 34.4 µM (inactive) | GI50 (SF-268): 34.1 µM (inactive) | GI50 (Hs-578T): 28.2 µM (inactive) | GI50 (MDA-MB-231): 31.3 µM (inactive) | GI50 (LOX IMVI): 26.2 µM (inactive) | GI50 (HCC 2998): 19.6 µM (inactive) | GI50 (Malme-3M): 46.3 µM (inactive) | GI50 (EKVX): 32.5 µM (inactive) | GI50 (OVCAR-3): 28.3 µM (inactive) | GI50 (SW-620): 24.8 µM (inactive) | GI50 (MDA-N): 41.3 µM (inactive) | GI50 (SK-OV-3): 39.5 µM (inactive) | GI50 (M14): 39.9 µM (inactive) | GI50 (KM12): 29.2 µM (inactive) | GI50 (SN12C): 43.6 µM (inactive) | GI50 (UACC-257): 61.7 µM (inactive) | GI50 (HCT-15): 25.1 µM | GI50 (786-0): 33.7 µM (inactive) | GI50 (PC-3): 29.2 µM (inactive) | GI50 (UO-31): 29.4 µM (inactive) | GI50 (SF-295): 31.7 µM (inactive) | GI50 (HL-60): 23.2 µM (inactive) | GI50 (UACC-62): 21.4 µM (inactive) | GI50 (A498): 24.6 µM (inactive) | GI50 (OVCAR-4): 28.5 µM (inactive) | GI50 (HT-29): 23.6 µM (inactive) | GI50 (U-251): 25.2 µM (inactive) | GI50 (HOP-92): 25.1 µM (inactive) | GI50 (IGROV-1): 22 µM (inactive) | GI50 (NCI-H226): 22.5 µM (inactive) | GI50 (COLO 205): 25.9 µM (inactive) | GI50 (NCI-H23): 34.5 µM (inactive) | GI50 (NCI/ADR-RES): 47.1 µM (inactive) | GI50 (A549): 41.5 µM (inactive)

Cn1c(=S)c2nc(SCc3cccnc3)[nH]c2n(C)c1=O
GI50 (T47D): > 100 µM (inactive) | GI50 (MCF7): > 100 µM (inactive) | GI50 (HCT-116): > 100 µM (inactive) | GI50 (SF-539): > 100 µM (inactive) | GI50 (RXF 393): > 100 µM (inactive) | GI50 (SNB-19): > 100 µM (inactive) | GI50 (K562): > 100 µM (inactive) | GI50 (TK-10): > 100 µM (inactive) | GI50 (SK-MEL-5): > 100 µM (inactive) | GI50 (ACHN): > 100 µM (inactive) | GI50 (MDA-MB-435): > 100 µM (inactive) | GI50 (SR): > 100 µM (inactive) | GI50 (HOP-62): > 100 µM (inactive) | GI50 (RPMI-8226): > 100 µM (inactive) | GI50 (BT-549): > 100 µM (inactive) | GI50 (CAKI-1): > 100 µM (inactive) | GI50 (SK-MEL-28): > 100 µM (inactive) | GI50 (SNB-75): 96.8 µM (inactive) | GI50 (NCI-H522): 82 µM (inactive) | GI50 (DU-145): > 100 µM (inactive) | GI50 (MOLT-4): > 100 µM (inactive) | GI50 (NCI-H460): > 100 µM (inactive) | GI50 (OVCAR-5): > 100 µM (inactive) | GI50 (OVCAR-8): > 100 µM (inactive) | GI50 (SF-268): > 100 µM (inactive) | GI50 (Hs-578T): 92 µM (inactive) | GI50 (MDA-MB-231): > 100 µM (inactive) | GI50 (LOX IMVI): > 100 µM (inactive) | GI50 (HCC 2998): > 100 µM (inactive) | GI50 (Malme-3M): 93.8 µM (inactive) | GI50 (EKVX): > 100 µM (inactive) | GI50 (OVCAR-3): > 100 µM (inactive) | GI50 (SW-620): > 100 µM (inactive) | GI50 (MDA-N): > 100 µM (inactive) | GI50 (SK-OV-3): > 100 µM (inactive) | GI50 (M14): > 100 µM (inactive) | GI50 (KM12): > 100 µM (inactive) | GI50 (SN12C): > 100 µM (inactive) | GI50 (UACC-257): > 100 µM (inactive) | GI50 (HCT-15): > 100 µM | GI50 (786-0): > 100 µM (inactive) | GI50 (PC-3): > 100 µM (inactive) | GI50 (UO-31): > 100 µM (inactive) | GI50 (SF-295): 97.7 µM (inactive) | GI50 (HL-60): > 100 µM (inactive) | GI50 (UACC-62): > 100 µM (inactive) | GI50 (A498): > 100 µM (inactive) | GI50 (SK-MEL-2): > 100 µM (inactive) | GI50 (OVCAR-4): > 100 µM (inactive) | GI50 (HT-29): > 100 µM (inactive) | GI50 (U-251): > 100 µM (inactive) | GI50 (HOP-92): > 100 µM (inactive) | GI50 (IGROV-1): > 100 µM (inactive) | GI50 (NCI-H226): > 100 µM (inactive) | GI50 (COLO 205): > 100 µM (inactive) | GI50 (NCI-H23): > 100 µM (inactive) | GI50 (NCI/ADR-RES): > 100 µM (inactive) | GI50 (A549): > 100 µM (inactive)

OCc1ccccc1O[C@H]1O[C@H](CO)[C@@H](O)[C@H](O)[C@H]1O
GI50 (T47D): > 100 µM (inactive) | GI50 (MCF7): > 100 µM (inactive) | GI50 (HCT-116): > 100 µM (inactive) | GI50 (SF-539): > 100 µM (inactive) | GI50 (RXF 393): > 100 µM (inactive) | GI50 (CCRF-CEM): > 100 µM (inactive) | GI50 (TK-10): > 100 µM (inactive) | GI50 (SK-MEL-5): > 100 µM (inactive) | GI50 (ACHN): > 100 µM (inactive) | GI50 (MDA-MB-435): > 100 µM (inactive) | GI50 (SR): > 10 µM (inactive) | GI50 (HOP-62): > 100 µM (inactive) | GI50 (RPMI-8226): > 100 µM (inactive) | GI50 (BT-549): > 100 µM (inactive) | GI50 (CAKI-1): > 100 µM (inactive) | GI50 (SK-MEL-28): > 100 µM (inactive) | GI50 (SNB-75): > 100 µM (inactive) | GI50 (NCI-H522): > 100 µM (inactive) | GI50 (DU-145): > 100 µM (inactive) | GI50 (MOLT-4): > 100 µM (inactive) | GI50 (NCI-H460): > 100 µM (inactive) | GI50 (OVCAR-5): > 100 µM (inactive) | GI50 (OVCAR-8): > 100 µM (inactive) | GI50 (SF-268): > 100 µM (inactive) | GI50 (Hs-578T): > 100 µM (inactive) | GI50 (MDA-MB-231): > 100 µM (inactive) | GI50 (LOX IMVI): > 100 µM (inactive) | GI50 (HCC 2998): > 100 µM (inactive) | GI50 (Malme-3M): > 100 µM (inactive) | GI50 (EKVX): > 100 µM (inactive) | GI50 (OVCAR-3): > 100 µM (inactive) | GI50 (SW-620): > 100 µM (inactive) | GI50 (MDA-N): > 100 µM (inactive) | GI50 (SK-OV-3): > 100 µM (inactive) | GI50 (M14): > 100 µM (inactive) | GI50 (KM12): > 100 µM (inactive) | GI50 (SN12C): > 100 µM (inactive) | GI50 (UACC-257): > 100 µM (inactive) | GI50 (HCT-15): > 100 µM | GI50 (786-0): > 100 µM (inactive) | GI50 (PC-3): > 100 µM (inactive) | GI50 (UO-31): > 100 µM (inactive) | GI50 (SF-295): > 100 µM (inactive) | GI50 (HL-60): > 100 µM (inactive) | GI50 (UACC-62): > 100 µM (inactive) | GI50 (A498): > 100 µM (inactive) | GI50 (SK-MEL-2): > 100 µM (inactive) | GI50 (OVCAR-4): > 100 µM (inactive) | GI50 (HT-29): > 100 µM (inactive) | GI50 (U-251): > 100 µM (inactive) | GI50 (HOP-92): > 100 µM (inactive) | GI50 (IGROV-1): > 100 µM (inactive) | GI50 (NCI-H226): > 100 µM (inactive) | GI50 (COLO 205): > 100 µM (inactive) | GI50 (NCI-H23): > 100 µM (inactive) | GI50 (NCI/ADR-RES): > 100 µM (inactive) | GI50 (A549): > 100 µM (inactive)
